For assay [1], the target named is T1, TgCyp23 (Toxoplasma gondii, UniProt B9PS61). The assay can be described thus: Differential scanning calorimetry (DSC) of TgCyp23 with ligands. Type of assay: binding. The following applies: melting temperature of 70 μM TgCyp23 with ligand; TgCyp23 alone 49 ± 1. As for the experimental part:
Differential scanning calorimetry (DSC) experiments were conducted using a nano‐DSC (TA instrument) with a cell volume of 300 μL (Favretto et al., [2023]). […] Data were fitted according to a two‐state model using NanoAnalyze software (TA instrument).

The target of assay [2] is T1, TgCyp23. The experiment in a line: PPIase inhibition, protease-coupled assay with AAPF peptide. It counts as biochemical. The following applies: PPIase activity, TgCyp23 7 nM, ligand 0 to 30 nM, 10 min on ice; error SEM of triplicate. The protocol: PPIase activity was determined using the synthetic peptide N‐succinyl‐Ala‐Ala‐Pro‐Phe‐p‐nitroanilide (AAPF) based on the protease‐coupled assay as described in (Favretto et al., [2023]; Kofron et al., [1991]). In inhibition assays, TgCyp23 (7 nM) was incubated for 10 min on ice in the presence of increasing concentrations of the three analogs, ranging from 0 to 30 nM, before the addition of the AAPF peptide. In all experiments, the slope of the catalyzed reaction was corrected for spontaneous thermal cis–trans isomerization in the presence of chymotrypsin alone.
The residual enzymatic activity was estimated from the initial velocities of each catalyzed reaction and expressed as a percentage (%) of the original enzymatic activity (Astegno et al., [2017]). Residual enzymatic activities were plotted against ligand concentrations, and the obtained curve was analyzed to determine the IC50 value for each tested ligand. The experiments were repeated in triplicate, and the error was estimated as the standard error of the mean (SEM).

Assay [3] addresses T1, TgCyp23. The assay can be described thus: Circular dichroism (CD) thermal denaturation of TgCyp23 with ligands. It counts as binding. The settings on record: melting temperature of TgCyp23 with saturating ligand, 224 nm; TgCyp23 alone 52 ± 1. As for the experimental part: Circular dichroism (CD) assays were conducted on a Jasco J‐1500 spectropolarimeter equipped with a Peltier temperature controller following the protocol described in (Bombardi et al., [2020]; Favretto et al., [2023]; Trande et al., [2019]; ). Briefly, denaturation profiles in the presence of saturating concentrations of ligands were obtained by monitoring the loss of secondary structure of TgCyp23 at 224 nm in the temperature range of 15–100°C, with a scan rate of 1.5°C/min. The protein concentration was 0.2 mg/mL, and the buffer used was 50 mM HEPES at pH 8.0 with 100 mM NaCl.
(In general: CD spectra are sensitive to the conformation of chiral molecules.)

For assay [4], the target named is T1, TgCyp23. The assay can be described thus: Isothermal titration calorimetry (ITC) binding to TgCyp23. The following applies: 20°C, 50 mM HEPES pH 8.0, 100 mM NaCl, error SEM of triplicate. As for the experimental part: Isothermal titration calorimetry (ITC) experiments were performed on a PEAQ‐ITC instrument from MicroCal (Northampton, MA) as previously described (Bombardi et al., [2022]; Conter et al., [2021]; Favretto et al., [2023]). Stock solutions of dhCsA, NIM811, and Alisporivir were prepared in 100% EtOH and successively diluted in a buffer of 50 mM HEPES, pH 8.0, 100 mM NaCl at a final concentration of 8 μM. […] The analog solutions were titrated with 2 μL (total 19 injections) of a 66 μM TgCyp23 solution supplemented with 0.1% EtOH. All the experiments were executed at an operating temperature of 20°C and a time gap of 150 s between each injection. Protein and ligand samples were filtered and degassed thoroughly before the experiments. Reference experiments were performed in the absence of a ligand or a protein, and the heat of dilution was subtracted from each experiment. Each titration set was repeated as a triplicate and the error was estimated as the SEM. The data were analyzed using the software MicroCal Origin, and the apparent dissociation constants Kd, the enthalpy changes (ΔH), and entropy changes (ΔS) were obtained.

In a further assay the target is CypA. The settings on record: Ptak et al., 2008, read-out: Ki, inhibition of CypA PPIase activity, cited from earlier work.
Assay [5] deals with T1, TgCyp23. The experiment in a line: Stopped-flow rapid kinetics of binding to TgCyp23. The following applies: association rate constant, 20°C, pH 7.4, 0.5 μM TgCyp23, ligands 1 to 7 μM. As for the experimental part:
Stopped‐flow experiments were performed on an SX‐18 stopped‐flow apparatus (Applied Photophysics, Leatherhead, UK) at 20°C in 50 mM Hepes, 150 mM NaCl, 1 mM DTT (pH 7.4). Fluorescence emission was measured using a 320 nm cutoff filter (λex = 280 nm). The concentration of TgCyp23 after mixing was 0.5 μM, and the concentration of ligands after mixing ranged from 1 to 7 μM. For each trace, data from 4 to 6 injections were averaged and fitted with a single exponential function, excluding data points in the dead‐time of the stopped flow (<2 ms).

Where two headings read alike, the source gives them in different places.

T1 sequence (B9PS61 entry or part of it): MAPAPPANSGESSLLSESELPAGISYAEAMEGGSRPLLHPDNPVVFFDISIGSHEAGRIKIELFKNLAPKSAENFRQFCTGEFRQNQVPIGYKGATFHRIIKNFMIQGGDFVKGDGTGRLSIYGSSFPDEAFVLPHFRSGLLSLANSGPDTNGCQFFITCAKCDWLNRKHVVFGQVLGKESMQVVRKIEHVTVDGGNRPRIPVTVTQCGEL

As a reminder, the IC50 is the concentration needed to halve the response being measured. Low values mean higher potency, high ones lower potency. A word on the Kd: it is the free concentration of one partner at which half of the binding sites on the other are occupied at equilibrium, for simple one-to-one binding. As usually defined, the Ki is a measure of affinity in units of concentration, obtained from inhibition or displacement. For orientation: kon means the second-order rate constant of association. High values mean fast association, low ones slow association. In the case of `C/C=C/C[C@@H](C)[C@@H](O)[C@H]1C(=O)N[C@@H](CC)C(=O)N(C)[C@H](C)C(=O)N(CC)[C@@H](C(C)C)C(=O)N[C@@H](C(C)C)C(=O)N(C)[C@@H](CC(C)C)C(=O)N[C@@H](C)C(=O)N[C@H](C)C(=O)N(C)[C@@H](CC(C)C)C(=O)N(C)[C@@H](CC(C)C)C(=O)N(C)[C@@H](C(C)C)C(=O)N1C` [Alisporivir, MeAla-3-EtVal-4-Cyclosporin], at TgCyp23 [1], the “Tm (DSC)” value was 55 ± 1 °C. The compound also came in with a half-maximal inhibitory concentration (IC50) on TgCyp23 [2] of 0.77 ± 0.01 nM. For the same compound, the “Tm (CD)” value at TgCyp23 [3] turned out to be 59 ± 1 °C. On TgCyp23 [4], this compound came in with a Kd of 15 ± 3 nM. The Ki on CypA (ref Coelmont et al., 2010, de Wilde et al., 2013, Gallay & Lin, 2013) is 0.34 nM. Also, on TgCyp23 [5], the kon was determined as 3.97e+06 ± 210000 M⁻¹ s⁻¹.

On to `C/C=C/C[C@@H](C)[C@@H](O)[C@H]1C(=O)N[C@@H](CC)C(=O)N(C)CC(=O)N(C)[C@@H]([C@@H](C)CC)C(=O)N[C@@H](C(C)C)C(=O)N(C)[C@@H](CC(C)C)C(=O)N[C@@H](C)C(=O)N[C@H](C)C(=O)N(C)[C@@H](CC(C)C)C(=O)N(C)[C@@H](CC(C)C)C(=O)N(C)[C@@H](C(C)C)C(=O)N1C` [NIM811, MeIle-4-Cyclosporin], for which, at TgCyp23 [1], the “Tm (DSC)” value came to 56 ± 1 °C. Also, at TgCyp23 [2], the IC50 was 0.85 ± 0.03 nM. Besides, on TgCyp23 [3], the “Tm (CD)” value was determined as 58 ± 1 °C. The affinity at TgCyp23 [4], expressed as Kd, was 43 ± 10 nM. Moreover, the Ki on CypA (ref Schiene-Fischer et al., 2022) is 2.1 nM. The compound further gave a kon on TgCyp23 [5] of 2.77e+06 ± 150000 M⁻¹ s⁻¹.

Turning to `CCCC[C@@H](C)[C@@H](O)[C@H]1C(=O)N[C@@H](CC)C(=O)N(C)CC(=O)N(C)[C@@H](CC(C)C)C(=O)N[C@@H](C(C)C)C(=O)N(C)[C@@H](CC(C)C)C(=O)N[C@@H](C)C(=O)N[C@H](C)C(=O)N(C)[C@@H](CC(C)C)C(=O)N(C)[C@@H](CC(C)C)C(=O)N(C)[C@@H](C(C)C)C(=O)N1C` [dhCsA, Dihydrocyclosporin A], the “Tm (DSC)” value on TgCyp23 [1] is 53 ± 1 °C. On TgCyp23 [2], this compound had an IC50 of 1.2 ± 0.2 nM. Moreover, the “Tm (CD)” value on TgCyp23 [3] is 57 ± 1 °C. Also, binding on TgCyp23 [4] was characterised by a dissociation constant (Kd) of 200 ± 92 nM. Moreover, the kon on TgCyp23 [5] was found to be 1.85e+06 ± 110000 M⁻¹ s⁻¹.

The record behind these values is paper PMC11418636, “Evaluating the potential of non‐immunosuppressive cyclosporin analogs for targeting Toxoplasma gondii cyclophilin: Insights from structural studies” (Protein Science : A Publication of the Protein Society, 2024).
